# Test results as given in patent US9833451B2 (priority 2007, dated 2017).
# Where a name gives a salt, the structure may show the parent alone. Read-outs that look alike come from different tables or passages of the source.
# Legend:
# clinical = conditions: for Concentration equivalent to peak plasma concentration (Cmax): human plasma; for Cmax: human, in vivo
# Description: The inhaled doses represent the expected systemic delivered dose and were estimated from the fine particle dose delivered ex-actuator.
# [1] = biological target: Dopaminergic receptor subtype D4 (Homo sapiens, UniProt P21917); conditions: read-out: Affinity IC50; cited from earlier work
# Chain of Dopaminergic receptor subtype D4 (P21917 whole entry): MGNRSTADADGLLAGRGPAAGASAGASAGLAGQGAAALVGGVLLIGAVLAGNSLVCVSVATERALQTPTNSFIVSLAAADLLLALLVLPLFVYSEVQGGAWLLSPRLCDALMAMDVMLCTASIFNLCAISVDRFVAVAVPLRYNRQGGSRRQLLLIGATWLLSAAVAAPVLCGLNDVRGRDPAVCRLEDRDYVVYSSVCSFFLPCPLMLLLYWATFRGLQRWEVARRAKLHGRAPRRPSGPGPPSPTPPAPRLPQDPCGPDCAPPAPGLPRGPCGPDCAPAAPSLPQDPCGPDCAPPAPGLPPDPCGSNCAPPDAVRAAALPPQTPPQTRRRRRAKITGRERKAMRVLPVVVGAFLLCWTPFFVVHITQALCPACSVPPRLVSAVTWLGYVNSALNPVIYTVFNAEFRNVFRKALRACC
# D2 receptor = D2 receptor (Homo sapiens, UniProt P14416); assay: Radioligand receptor binding at concentrations equivalent to Cmax
# Chain of D2 receptor (P14416 whole entry): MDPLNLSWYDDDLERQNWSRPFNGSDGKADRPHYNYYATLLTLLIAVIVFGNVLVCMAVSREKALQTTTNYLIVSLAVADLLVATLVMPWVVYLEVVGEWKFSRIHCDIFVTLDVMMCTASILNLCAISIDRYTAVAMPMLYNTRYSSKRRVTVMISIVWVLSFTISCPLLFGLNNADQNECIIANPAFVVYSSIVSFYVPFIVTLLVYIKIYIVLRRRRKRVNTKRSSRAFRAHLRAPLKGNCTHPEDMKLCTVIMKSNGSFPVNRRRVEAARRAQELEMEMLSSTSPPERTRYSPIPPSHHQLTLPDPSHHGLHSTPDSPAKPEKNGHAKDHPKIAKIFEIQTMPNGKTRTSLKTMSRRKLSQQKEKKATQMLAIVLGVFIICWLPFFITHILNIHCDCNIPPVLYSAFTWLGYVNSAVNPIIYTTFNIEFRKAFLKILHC
# Description: “(h)” represents cloned human receptor subtypes and “NS” indicates non-specific binding.
# (§1) Table 2 presents in vitro concentrations equivalent to Cmax.
# [2] = biological target: Adrenergic receptor subtype α1a (Homo sapiens, UniProt P35348); conditions: read-out: Affinity IC50; cited from earlier work
# muscarinic (M) receptors = conditions: cited from earlier work
# [3] = biological target: Serotonin receptor subtype 1F (Homo sapiens, UniProt P30939); conditions: read-out: Affinity IC50; cited from earlier work
# Chain of Serotonin receptor subtype 1F (P30939 whole entry): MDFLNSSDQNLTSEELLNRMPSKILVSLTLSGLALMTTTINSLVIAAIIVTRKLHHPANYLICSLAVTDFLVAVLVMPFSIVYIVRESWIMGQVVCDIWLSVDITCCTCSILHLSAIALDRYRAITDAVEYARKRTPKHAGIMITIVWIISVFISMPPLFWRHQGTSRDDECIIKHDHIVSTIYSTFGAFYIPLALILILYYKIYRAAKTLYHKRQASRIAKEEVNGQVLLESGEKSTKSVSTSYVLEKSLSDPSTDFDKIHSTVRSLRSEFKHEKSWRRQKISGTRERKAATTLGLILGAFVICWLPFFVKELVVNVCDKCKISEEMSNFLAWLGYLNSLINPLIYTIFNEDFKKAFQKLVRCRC
# [4] = biological target: Dopaminergic receptor subtype D2 (Homo sapiens, UniProt P14416); conditions: read-out: Affinity IC50; cited from earlier work
# Chain of Dopaminergic receptor subtype D2 (P14416 whole entry): as the sequence (P14416 whole entry) above
# [5] = biological target: Adrenergic receptor subtype α1b (Homo sapiens, UniProt P35368); conditions: read-out: Affinity IC50; cited from earlier work
# Chain of Adrenergic receptor subtype α1b (P35368 whole entry): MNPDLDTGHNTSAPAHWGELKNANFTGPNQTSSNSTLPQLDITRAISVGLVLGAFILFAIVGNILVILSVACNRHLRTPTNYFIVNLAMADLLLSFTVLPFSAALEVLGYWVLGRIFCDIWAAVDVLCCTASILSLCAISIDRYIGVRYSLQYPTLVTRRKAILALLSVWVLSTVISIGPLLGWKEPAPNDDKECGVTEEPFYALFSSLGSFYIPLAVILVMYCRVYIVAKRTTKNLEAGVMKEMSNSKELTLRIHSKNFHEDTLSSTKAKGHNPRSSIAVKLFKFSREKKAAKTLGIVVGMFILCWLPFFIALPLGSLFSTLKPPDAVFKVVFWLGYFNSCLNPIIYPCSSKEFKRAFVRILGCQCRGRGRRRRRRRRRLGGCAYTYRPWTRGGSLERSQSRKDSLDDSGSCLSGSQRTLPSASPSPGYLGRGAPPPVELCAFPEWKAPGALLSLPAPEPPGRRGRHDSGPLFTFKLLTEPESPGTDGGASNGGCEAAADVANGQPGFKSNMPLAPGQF
# [6] = biological target: Serotonin receptor subtype 2C (Homo sapiens, UniProt P28335); conditions: read-out: Affinity IC50; cited from earlier work
# 5-HT1B receptors = 5-HT1B receptors (Homo sapiens, UniProt P28222); assay: Selective agonism at various concentrations of DHE (FIG. 5); assay type: biochemical; conditions: 5 μm control, 77.6 nM (IV Cmax), 6.25 nM (4 inhalations Cmax), 0.25 nM
# Chain of 5-HT1B receptors (P28222 whole entry): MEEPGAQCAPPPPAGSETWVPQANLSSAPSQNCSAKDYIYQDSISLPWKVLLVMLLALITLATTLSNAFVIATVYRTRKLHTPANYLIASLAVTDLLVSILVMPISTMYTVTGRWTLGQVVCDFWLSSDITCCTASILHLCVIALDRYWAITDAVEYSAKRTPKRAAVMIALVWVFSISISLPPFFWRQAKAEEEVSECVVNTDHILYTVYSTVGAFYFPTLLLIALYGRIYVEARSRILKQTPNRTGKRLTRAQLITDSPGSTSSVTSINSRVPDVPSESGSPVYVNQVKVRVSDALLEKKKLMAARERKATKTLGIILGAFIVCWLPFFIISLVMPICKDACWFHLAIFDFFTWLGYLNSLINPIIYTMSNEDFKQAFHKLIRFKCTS
# Description: (§2) Agonists of 5-HT1B subtype receptors are known to be useful in the treatment of migraine and associated symptoms. 5-HT2B receptors are known to play a triggering role in the onset of migraine.
# 5-HT2B receptors = 5-HT2B receptors (Homo sapiens, UniProt P41595); assay: as above; assay type: biochemical; conditions: orally-inhaled DHE concentrations (6.25 nM at Cmax of 4 inhalations)
# Chain of 5-HT2B receptors (P41595 whole entry): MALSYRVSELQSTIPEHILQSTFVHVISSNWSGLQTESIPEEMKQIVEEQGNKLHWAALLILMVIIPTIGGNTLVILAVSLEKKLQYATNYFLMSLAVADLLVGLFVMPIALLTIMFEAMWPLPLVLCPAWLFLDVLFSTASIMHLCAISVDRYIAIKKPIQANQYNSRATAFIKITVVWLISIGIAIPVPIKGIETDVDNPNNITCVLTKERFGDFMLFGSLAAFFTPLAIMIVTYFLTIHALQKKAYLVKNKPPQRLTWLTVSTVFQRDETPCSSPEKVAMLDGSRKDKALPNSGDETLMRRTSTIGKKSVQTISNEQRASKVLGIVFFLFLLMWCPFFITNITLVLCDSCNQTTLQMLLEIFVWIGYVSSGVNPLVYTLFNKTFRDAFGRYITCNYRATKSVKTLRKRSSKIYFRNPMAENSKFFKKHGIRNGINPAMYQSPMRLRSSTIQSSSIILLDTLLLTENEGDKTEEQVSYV
# Description: as §2
# [7] = test system: migraine pain in subjects; assay: Relief from migraine pain after inhaled DHE (FIG. 1); assay type: in vivo, human; conditions: administration giving the two lower peak plasma profiles of FIG. 2
# [8] = biological target: Serotonin receptor subtype 1D (Homo sapiens, UniProt P28221); conditions: read-out: Affinity IC50; cited from earlier work
# [9] = biological target: Serotonin receptor subtype 5; conditions: read-out: Affinity IC50; cited from earlier work
# [10] = biological target: Serotonin receptor subtype 1E (Homo sapiens, UniProt P28566); conditions: read-out: Affinity IC50; cited from earlier work
# Chain of Serotonin receptor subtype 1E (P28566 whole entry): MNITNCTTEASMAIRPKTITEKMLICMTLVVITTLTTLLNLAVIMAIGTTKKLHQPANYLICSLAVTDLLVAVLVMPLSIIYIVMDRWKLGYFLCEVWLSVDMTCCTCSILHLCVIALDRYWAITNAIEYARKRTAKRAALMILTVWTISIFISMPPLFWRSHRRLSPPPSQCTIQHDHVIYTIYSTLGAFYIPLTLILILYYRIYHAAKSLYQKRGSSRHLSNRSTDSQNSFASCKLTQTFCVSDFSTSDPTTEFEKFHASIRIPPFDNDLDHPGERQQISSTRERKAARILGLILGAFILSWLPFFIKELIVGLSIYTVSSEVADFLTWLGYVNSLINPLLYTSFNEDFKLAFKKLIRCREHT
# [11] = given subcutaneously at a concentration of only 1.5 mM; cited from earlier work
# [12] = Side effects in clinical study of IV versus inhaled DHE; assay type: in vivo, human
# Description: The inventors have discovered that these slightly delayed, lower peak pharmacokinetic profiles are associated with minimized side effects.
# [13] = biological target: Dopaminergic receptor subtype D3 (Homo sapiens, UniProt P35462); conditions: read-out: Affinity IC50; cited from earlier work
# 5-HT3 receptors [14] = biological target: T1, 5-HT3 receptors (Homo sapiens, UniProt P46098); assay: Functional assays at 5-HT3 receptors; assay type: biochemical
# T1 sequence (P46098 24-478): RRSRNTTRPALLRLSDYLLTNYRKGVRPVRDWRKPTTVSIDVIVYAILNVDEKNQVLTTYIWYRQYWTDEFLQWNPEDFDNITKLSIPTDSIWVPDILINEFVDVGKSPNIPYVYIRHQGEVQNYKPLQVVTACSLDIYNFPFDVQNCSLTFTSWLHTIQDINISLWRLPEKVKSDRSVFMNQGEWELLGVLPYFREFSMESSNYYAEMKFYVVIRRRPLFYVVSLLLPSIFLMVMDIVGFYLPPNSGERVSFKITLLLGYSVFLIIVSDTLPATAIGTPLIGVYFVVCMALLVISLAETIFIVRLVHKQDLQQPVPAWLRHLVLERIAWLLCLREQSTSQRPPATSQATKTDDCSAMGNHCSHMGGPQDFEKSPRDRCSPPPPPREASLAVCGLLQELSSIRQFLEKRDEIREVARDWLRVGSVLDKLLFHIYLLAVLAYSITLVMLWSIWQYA
# Description: 5-HT3 receptors are known to be implicated in nausea. Antagonists at these receptors, such as ondansetron and granisetron prevent chemotherapy-induced nausea and vomiting.
# [15] = biological target: Adrenergic receptor subtype β3 (Homo sapiens, UniProt P13945); conditions: read-out: Affinity IC50; cited from earlier work
# Chain of Adrenergic receptor subtype β3 (P13945 whole entry): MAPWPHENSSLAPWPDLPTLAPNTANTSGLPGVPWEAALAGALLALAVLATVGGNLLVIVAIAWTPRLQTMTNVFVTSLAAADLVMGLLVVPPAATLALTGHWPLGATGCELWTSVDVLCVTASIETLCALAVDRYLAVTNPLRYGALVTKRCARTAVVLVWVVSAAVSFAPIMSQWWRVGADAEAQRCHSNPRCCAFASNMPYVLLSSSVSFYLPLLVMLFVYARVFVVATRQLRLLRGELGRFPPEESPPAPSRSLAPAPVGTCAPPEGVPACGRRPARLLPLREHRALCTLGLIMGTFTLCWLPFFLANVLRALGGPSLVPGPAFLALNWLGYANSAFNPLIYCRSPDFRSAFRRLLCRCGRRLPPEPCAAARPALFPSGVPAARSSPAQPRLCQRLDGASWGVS
# [16] = biological target: Serotonin receptor subtype 3 (Homo sapiens, UniProt P46098); conditions: read-out: Affinity IC50; cited from earlier work
# Chain of Serotonin receptor subtype 3 (P46098 24-478): as the sequence (P46098 24-478) above
# [17] = biological target: Adrenergic receptor subtype β1 (Homo sapiens, UniProt P08588); conditions: read-out: Affinity IC50; cited from earlier work
# Chain of Adrenergic receptor subtype β1 (P08588 whole entry): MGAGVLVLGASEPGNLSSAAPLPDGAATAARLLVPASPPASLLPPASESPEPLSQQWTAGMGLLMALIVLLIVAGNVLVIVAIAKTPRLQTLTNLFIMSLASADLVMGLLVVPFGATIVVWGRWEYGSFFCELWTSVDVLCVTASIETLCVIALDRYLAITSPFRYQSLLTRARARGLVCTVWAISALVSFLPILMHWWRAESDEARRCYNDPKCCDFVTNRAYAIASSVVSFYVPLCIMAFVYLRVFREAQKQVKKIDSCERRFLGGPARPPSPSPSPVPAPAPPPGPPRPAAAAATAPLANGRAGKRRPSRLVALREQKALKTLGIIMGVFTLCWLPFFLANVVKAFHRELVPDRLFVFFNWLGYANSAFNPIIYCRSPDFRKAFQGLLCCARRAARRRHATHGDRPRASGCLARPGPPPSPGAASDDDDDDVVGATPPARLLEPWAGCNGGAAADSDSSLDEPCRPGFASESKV
# [18] = biological target: Serotonin receptor subtype 1A (Homo sapiens, UniProt P08908); conditions: read-out: Affinity IC50; cited from earlier work
# Chain of Serotonin receptor subtype 1A (P08908 whole entry): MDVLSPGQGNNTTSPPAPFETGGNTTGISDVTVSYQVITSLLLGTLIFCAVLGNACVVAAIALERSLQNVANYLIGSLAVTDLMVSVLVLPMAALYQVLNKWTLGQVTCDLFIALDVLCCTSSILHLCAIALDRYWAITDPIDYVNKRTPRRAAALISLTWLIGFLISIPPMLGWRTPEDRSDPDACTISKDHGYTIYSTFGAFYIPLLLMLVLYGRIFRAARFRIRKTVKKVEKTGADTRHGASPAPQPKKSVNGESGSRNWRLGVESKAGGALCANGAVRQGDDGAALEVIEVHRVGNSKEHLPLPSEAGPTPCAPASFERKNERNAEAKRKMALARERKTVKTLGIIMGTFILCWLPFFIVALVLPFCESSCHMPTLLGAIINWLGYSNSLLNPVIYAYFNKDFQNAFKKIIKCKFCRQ
# [19] = biological target: Serotonin receptor subtype 1B (Homo sapiens, UniProt P28222); conditions: read-out: Affinity IC50; cited from earlier work
# Chain of Serotonin receptor subtype 1B (P28222 whole entry): as the sequence (P28222 whole entry) above
# 5-HT3 receptors [20] = biological target: T1, 5-HT3 receptors; assay: Radioligand receptor binding at concentrations equivalent to Cmax; conditions: all DHE delivery routes investigated, <20% classed as inactive
# Description: (§3) “(h)” represents cloned human receptor subtypes.
# as §1
# 5-HT1D receptors = 5-HT1D receptors (Homo sapiens, UniProt P28221); assay: as above; conditions: following inhalation, compared with IV
# Description: as §3, §1
# 5-HT1B = assay: as above
# Description: as §3, §1
# [21] = cited from earlier work
# [22] = pulmonary delivery; cited from earlier work
# [23] = after inhalable administration of DHE
smiles,measurement,setting,value
CN1C[C@H](C(=O)N[C@]2(C)O[C@@]3(O)[C@@H]4CCC(O)N4C(=O)[C@H](Cc4ccccc4)N3C2=O)C[C@@H]2c3cccc4[nH]cc(c34)C[C@H]21 (stereo partly drawn) [8′-OH Dihydroergotamine],Concentration equivalent to peak plasma concentration (Cmax),clinical; after DHE 0.44 mg inhaled,0.058 ng/mL
same,Concentration equivalent to peak plasma concentration (Cmax),clinical; after DHE 0.88 mg inhaled,0.149 ng/mL
same,Concentration equivalent to peak plasma concentration (Cmax),clinical; after DHE 1 mg IV (infusion over 3 minutes),0.378 ng/mL
same,Tmax of primary metabolite in circulating plasma,clinical; [23],less than 90 minutes
same,peak plasma concentration of metabolite at Cmax,clinical; [23],"less than 1,000 pg/ml"
"CN1C[C@H](C(=O)N[C@]2(C)O[C@@]3(O)[C@@H]4CCCN4C(=O)[C@H](Cc4ccccc4)N3C2=O)C[C@@H]2c3cccc4[nH]cc(c34)C[C@H]21 [DHE, dihydroergotamine mesylate]",IC50,[1],8.7 nM
same,receptor binding in D2 assays,D2 receptor; IV dose Cmax levels,50%
same,binding in D2 assays,D2 receptor; after inhaled dosing (Cmax levels),no binding affinity
same,IC50,[2],6.6 nM
same,binding activity at muscarinic (M) receptors,muscarinic (M) receptors,minimal binding activity
same,IC50,[3],180 nM
same,IC50,[4],1.2 nM
same,IC50,[5],8.3 nM
same,IC50,[6],1.3 nM
same,agonism at 5-HT1B receptors,5-HT1B receptors,maintained across all concentrations
same,agonism at 5-HT2B receptors,5-HT2B receptors,agonism is absent
same,time to rapid pain relief,[7],≤ 10 min
same,IC50,[8],0.5 nM
same,IC50,[9],60 nM
same,IC50,[10],1100 nM
same,treated patients with nausea,[11],~16%
same,side effects observed,[12]; 0.44 mg dose inhaled,no side effects were observed
same,"Dizziness, subjects (%)","[12]; 0.88 mg DHE Inhaled, n = 12",1 (8) (%)
same,"Feeling hot, subjects (%)","[12]; 0.88 mg DHE Inhaled, n = 12",0 (%)
same,"Nausea, subjects (%)","[12]; 0.88 mg DHE Inhaled, n = 12",1 (8) (%)
same,"Paresthesia, subjects (%)","[12]; 0.88 mg DHE Inhaled, n = 12",0 (%)
same,"Vomiting, subjects (%)","[12]; 0.88 mg DHE Inhaled, n = 12",0 (%)
same,side effects observed,[12]; 0.88 mg dose inhaled,only minor side effects
same,"Dizziness, number considered by investigator related to study drug (r)","[12]; 1 mg DHE IV, n = 16",7
same,"Dizziness, subjects (%)","[12]; 1 mg DHE IV, n = 16",7 (44) (%)
same,"Feeling hot, number considered by investigator related to study drug (r)","[12]; 1 mg DHE IV, n = 16",3
same,"Feeling hot, subjects (%)","[12]; 1 mg DHE IV, n = 16",3 (19) (%)
same,"Nausea, number considered by investigator related to study drug (r)","[12]; 1 mg DHE IV, n = 16",10
same,"Nausea, subjects (%)","[12]; 1 mg DHE IV, n = 16",10 (63) (%)
same,"Paresthesia, number considered by investigator related to study drug (r)","[12]; 1 mg DHE IV, n = 16",5
same,"Paresthesia, subjects (%)","[12]; 1 mg DHE IV, n = 16",5 (31) (%)
same,"Vomiting, number considered by investigator related to study drug (r)","[12]; 1 mg DHE IV, n = 16",2
same,"Vomiting, subjects (%)","[12]; 1 mg DHE IV, n = 16",2 (13) (%)
same,side effects observed,[12]; 1.0 mg IV DHE,significant side effects including nausea and emesis
same,incidence of nausea,[12]; inhaled,8%
same,incidence of nausea,[12]; intravenous administration,63%
same,IC50,[13],6.4 nM
same,agonist or antagonist activity at 5-HT3 receptors,5-HT3 receptors [14],lack of agonist or antagonist activity
same,time to rapid plasma levels,clinical; all three methods of administration (FIG. 2),≤ 20 min
same,difference in AUC,clinical; between 1 mg IV and 0.88 mg inhaled,1.2 fold
same,Cmax,"clinical; inhaled or intranasal, 0.44 mg",1.34 ng/mL
same,Cmax,"clinical; inhaled or intranasal, 0.88 mg",4.29 ng/mL
same,Cmax,"clinical; iv, 1 mg",53.2 ng/mL
same,IC50,[15],271 nM
same,IC50,[16],3700 nM
same,IC50,[17],3100 nM
same,IC50,[18],0.4 nM
same,IC50,[19],0.7 nM
same,binding at 5-HT3 receptors,5-HT3 receptors [20],< 20%
same,apparent binding at 5-HT1D receptors,5-HT1D receptors,lower than IV
same,binding at 5-HT1B,5-HT1B; Cmax following 0.88 mg inhaled dosing,100%
same,binding at 5-HT1B,5-HT1B; Cmax following 1 mg intravenous dosing,100%
"CN1C[C@H](C(=O)N[C@]2(C)O[C@@]3(O)[C@@H]4CCCN4C(=O)[C@H](Cc4ccccc4)N3C2=O)C=C2c3cccc4[nH]cc(c34)C[C@H]21 [Ergotamine, ergotamine tartrate]",onset of therapeutic efficacy,[21]; intranasal,45 min
same,onset of therapeutic efficacy,[21]; oral or sublingual delivery,120 min
same,bioavailability,[22],up to 92%
